# Data taken from patent publication US20070292876A1, “METHODS FOR IDENTIFICATION OF COMPOUNDS THAT MIMIC THE SENESCENCE-INDUCING ACTIVITY OF RETINOIC ACID RECEPTOR LIGANDS” (Ordway Research Institute, Inc., priority 2006, published 2007).
# Entries after “also recorded” stand apart in the source; their conditions may differ.
# Key:
# Assay type in all cases: cell-based, human
# MCF-7 cells [1] = test: Effect on MCF-7 cell growth (cell number after 7 days exposure); settings: LGD1550 100 nM, LG100815 10 μM, LGD1268 100 nM, LG101208 10 μM
# Experimental: The bars represent cell number after 7 days of culture with the addition of DMSO (control), 100 nM RA, 100 nM RAR agonist LGD1550, 100 nM RXR agonist LGD1268, 10 μM RAR antagonist LG100815, and 10 μM RXR antagonist LG101208. Experiments were done in triplicate, and the results are expressed relative to the average of the control.
# (§1) MCF-7 cells were plated at 5×10^5 per P100, and exposed on the next day to DMSO carrier, RA (100 nM), pan-RAR-specific ligands, LGD1550 (100 nM) and LG100815 (10 μM), pan-RXR specific agonist LGD1268, pan-RXR-specific antagonist LG101208, or drug-free DMSO carrier (control). The latter four compounds were provided by Ligand Pharmaceuticals, Inc. The effects of RAR ligands on the growth of MCF-7 cells were determined, as measured by the cell number after 7 days exposure to the compounds (FIG. 1) and on the fraction of cells expressing the senescence-associated β-galactosidase activity (SA-β-gal), a marker of senescence, after 7-day treatment with the compounds (FIG. 2).
# MCF-7 cells [2] = test: Senescence-associated β-galactosidase (SA-β-gal) positive fraction of MCF-7 cells; settings: 7-day treatment; same concentrations as for cell growth
# Experimental: The bars represent percentages of SA-P-gal+cells after 8 days of treatment with the indicated compounds (in triplicate). The compounds were used at the same concentrations as in FIG. 1.
# as §1
# MCF-7 cells [3] = test: Affymetrix U133 Plus 2.0 microarray gene expression profiling: tumor suppressors induced by RAR ligands; settings: 24, 48 or 72 hr treatment
# Description: (§2) FIG. 3 depicts microarray analysis of changes in gene expression in MCF-7 cells treated with RAR ligands LGD1550 or LG100815, plotted using GeneSpring software. The X axis represents different time points of treatment with RAR ligands (0 point correspond to cells cultured for 3 days with DMSO carrier). […] The groups of genes shown in panels (a) and (b) represent gene ontology (GO) categories, with the exclusion of genes showing raw signal intensity <10 in MCF-7 cells. The groups of genes shown in panels (c) and (d) represent the oncogenes and tumor suppressors listed in Table 1 and Table 2, respectively.
# (§3) For the analysis of gene expression, cells treated with the carrier or with RAR ligands LGD1550 or LG100815 were collected after 24, 48 or 72 hr treatment. Total cellular RNA was isolated using Qiagen's RNeasy kit. For gene expression profiling, RNA samples were provided to the Microarray Core Facility at the Genomics Institute of the NYSDOH Wadsworth Center, which carried out biotinylated target preparation (using 2 μg RNA per assay) and hybridization with Affymetrix U133 Plus 2.0 microarrays. Data analysis was carried out using GeneSpring software (Agilent). Gene function analysis was carried out using Pathway Assist (Ariadne Genomics) and PubMed.
# As previously described (Dokmanovic et al., 2002), retinoid treatment of MCF-7 cells induces genes that encode growth-inhibitory proteins, both intracellular (EPLIN and UBD) and secreted (IGFBP3 and TGFBI). Through the survey of the present microarray data, additional retinoid-inducible growth-inhibitory genes, induced both by LGD1550 and LG100815, have been identified. These genes, listed in Table 2, provide advantageous reporters for identifying compounds that mimic the senescence-inducing effects of retinoids. The products of these genes include both secreted factors and cell-associated proteins.
# MCF-7 cells [4] = test: Affymetrix U133 Plus 2.0 microarray gene expression profiling: genes (oncogenes) inhibited by RAR ligands; settings: 24, 48 or 72 hr treatment
# Description: as §2, §3
# Gene Ontology groupings of genes with related biological functions (as provided in the GeneSpring software package) were surveyed for concerted response to RAR ligands. […] Strong downregulation of such genes has been associated with cell cycle arrest induced by chemotherapeutic drugs (Chang et al., 2002). In contrast, inhibition of these genes by RAR ligands was moderate (on average about 2-fold), with almost no genes showing 5-fold or stronger inhibition. On the other hand, we noticed that many of the genes that show the greatest fold inhibition by RAR ligands are known or putative oncogenes. Genes are defined herein as putative oncogenes or tumor suppressors if such genes have been reported in the literature to play a functional role in tumor cell growth, survival, tumorigenesis or metastasis, as determined by targeted inhibition, gene overexpression or protein addition studies.
# MDA-MB-231 cells = test: Coculture of GFP-expressing MDA-MB-231 cells with RA-treated MCF-7 cells, MDA-MB-231 cell number by FACS
# Experimental: Each bar represents MDA-MB-231 cell number after five days of culture relative to cell number in the absence of MCF-7 or RA. Mean and standard deviation were calculated from three independent experiments. • (b) MDA-MB-231 cells (GFP-expressing) were plated as 1:1 mixtures with MCF-7 cells that were either untreated or treated for eight days with 100 nM, and grown in the presence of DMSO carrier or 100 nM RA. Each bar represents MDA-MB-231 cell relative to MDA-MB-231 cell number in coculture with untreated MCF-7 without RA. Mean and standard deviation were calculated from three independent experiments.
# Since retinoid-treated MCF-7 cells upregulate genes for secreted factors with different activities, a functional test was carried out to determine whether retinoid-treated MCF-7 cells express primarily pro-mitogenic or anti-mitogenic activity. In this assay, MCF-7 cells were mixed (1:1) with MDA-MB-231 breast carcinoma cells (insensitive to retinoids), which were transduced with Green Fluorescent Protein (GFP), providing the ability to distinguish and quantitate these cells by FACS analysis. The co-cultures were treated for five days with 100 nM RA. […] In contrast, retinoid treatment in coculture with MCF-7 decreased the number of MDA-MB-231 cells by about 25% (FIG. 4a). In another type of experiment, shown in FIG. 4b, MCF-7 cells were pre-treated for 8 days with RA, to allow for complete growth arrest and development of the senescent phenotype. The treated MCF-7 cells were collected by trypsinization and cocultured for three days with MDA-MB-231, in the presence or in the absence of RA. Coculture with RA-pretreated MCF-7 cells was sufficient to inhibit MDA-MB-231 cell growth by about 30%, as compared to coculture with untreated MCF-7 cells (FIG. 4B, left bar).
compound,measurement,setting,value
Cc1cc2c(cc1C1(c3ccc(C(=O)O)cn3)CC1)C(C)(C)CCC2(C)C [LGD1268],MCF-7 cell growth (cell number),MCF-7 cells [1],did not inhibit cell growth; also recorded: modest but reproducible increase in cell growth
same,fraction of cells expressing SA-β-gal (senescent phenotype),MCF-7 cells [2],did not induce the senescent phenotype
CC(/C=C/C=C(\C)c1cc(C(C)(C)C)cc(C(C)(C)C)c1)=C\C(=O)O [LGD1550],Max fold induction of NBL1,MCF-7 cells [3]; probe 37005_at,4.0 fold
same,Max fold induction of GSN,MCF-7 cells [3]; probe 200696_s_at,1.7 fold
same,Max fold induction of BTG1,MCF-7 cells [3]; probe 200921_s_at,2.5 fold
same,Max fold induction of PRSS11,"MCF-7 cells [3]; probe 201185_at, secreted",1.9 fold
same,Max fold induction of BTG2,MCF-7 cells [3]; probe 201236_s_at,8.3 fold
same,Max fold induction of TGFBI,"MCF-7 cells [3]; probe 201506_at, secreted",53.0 fold
same,Max fold induction of MARCKS,MCF-7 cells [3]; probe 201669_s_at,9.3 fold
same,Max fold induction of PRSS8,"MCF-7 cells [3]; probe 202525_at, secreted",2.4 fold
same,Max fold induction of IRF1,MCF-7 cells [3]; probe 202531_at,5.3 fold
same,Max fold induction of FBLN5,"MCF-7 cells [3]; probe 203088_at, secreted",10.1 fold
same,Max fold induction of IGFBP6,"MCF-7 cells [3]; probe 203851_at, secreted",2.6 fold
same,Max fold induction of GADD45G,MCF-7 cells [3]; probe 204121_at,3.8 fold
same,Max fold induction of UBD,MCF-7 cells [3]; probe 205890_s_at,35.9 fold
same,Max fold induction of BATF,MCF-7 cells [3]; probe 205965_at,2.7 fold
same,Max fold induction of CEACAM1,MCF-7 cells [3]; probe 206576_s_at,16.2 fold
same,Max fold induction of PPARG,MCF-7 cells [3]; probe 208510_s_at,15.9 fold
same,Max fold induction of KLF6,MCF-7 cells [3]; probe 208961_s_at,2.2 fold
same,Max fold induction of DDIT3,MCF-7 cells [3]; probe 209383_at,2.5 fold
same,Max fold induction of NKX3-1,MCF-7 cells [3]; probe 209706_at,7.5 fold
same,Max fold induction of IGFBP3,"MCF-7 cells [3]; probe 210095_s_at, secreted",32.2 fold
same,Max fold induction of SULF1,"MCF-7 cells [3]; probe 212354_at, secreted",2.9 fold
same,Max fold induction of PDCD4,MCF-7 cells [3]; probe 212593_s_at,1.7 fold
same,Max fold induction of EI24,MCF-7 cells [3]; probe 216396_s_at,2.2 fold
same,Max fold induction of EPLIN,MCF-7 cells [3]; probe 217892_s_at,18.8 fold
same,Max fold induction of PHLDA1,MCF-7 cells [3]; probe 217996_at,3.7 fold
same,Max fold induction of GDF15,"MCF-7 cells [3]; probe 221577_x_at, secreted",7.2 fold
same,Max fold induction of FOXO3A,MCF-7 cells [3]; probe 224891_at,2.3 fold
same,Max fold induction of HIPK2,MCF-7 cells [3]; probe 225368_at,3.7 fold
same,Max fold induction of TGFB2,"MCF-7 cells [3]; probe 228121_at, secreted",2.0 fold
same,Max fold induction of CDKN2B,MCF-7 cells [3]; probe 236313_at,3.2 fold
same,Max fold induction of VHL,MCF-7 cells [3]; probe 1559227_s_at,2.0 fold
same,MCF-7 cell growth (cell number),MCF-7 cells [1],inhibited the cell growth
same,fraction of cells expressing SA-β-gal (senescent phenotype),MCF-7 cells [2],induced SA-β-gal to an extent similar to that of RA
same,Max fold inhibition of G6PD,MCF-7 cells [4]; probe 202275_at,2.2 fold
same,Max fold inhibition of CCNA2,MCF-7 cells [4]; probe 203418_at,3.3 fold
same,Max fold inhibition of PTTG1,MCF-7 cells [4]; probe 203554_x_at,2.7 fold
same,Max fold inhibition of PBX3,MCF-7 cells [4]; probe 204082_at,3.4 fold
same,Max fold inhibition of FGFR3,MCF-7 cells [4]; probe 204379_s_at,5.0 fold
same,Max fold inhibition of TFF3,"MCF-7 cells [4]; probe 204623_at, secreted",4.0 fold
same,Max fold inhibition of IRS1,MCF-7 cells [4]; probe 204686_at,2.6 fold
same,Max fold inhibition of MYB,MCF-7 cells [4]; probe 204798_at,9.9 fold
same,Max fold inhibition of C4.4A,MCF-7 cells [4]; probe 204952_at,8.1 fold
same,Max fold inhibition of ENTPD5,MCF-7 cells [4]; probe 205757_at,3.4 fold
same,Max fold inhibition of GREB1,MCF-7 cells [4]; probe 205862_at,4.8 fold
same,Max fold inhibition of HMMR,MCF-7 cells [4]; probe 207165_at,2.9 fold
same,Max fold inhibition of CCND1,MCF-7 cells [4]; probe 208711_s_at,2.1 fold
same,Max fold inhibition of BMP7,"MCF-7 cells [4]; probe 209591_s_at, secreted",1.8 fold
same,Max fold inhibition of CXCL12,"MCF-7 cells [4]; probe 209687_at, secreted",5.7 fold
same,Max fold inhibition of MSX2,MCF-7 cells [4]; probe 210319_x_at,4.0 fold
same,Max fold inhibition of RET,MCF-7 cells [4]; probe 211421_s_at,8.5 fold
same,Max fold inhibition of PIK3R1,MCF-7 cells [4]; probe 212240_s_at,2.0 fold
same,Max fold inhibition of MYBL1,MCF-7 cells [4]; probe 213906_at,2.6 fold
same,Max fold inhibition of MAFB,MCF-7 cells [4]; probe 218559_s_at,7.5 fold
same,Max fold inhibition of VAV3,MCF-7 cells [4]; probe 218807_at,14.5 fold
same,Max fold inhibition of PDLIM2,MCF-7 cells [4]; probe 219165_at,4.0 fold
same,Max fold inhibition of ECT2,MCF-7 cells [4]; probe 219787_s_at,2.8 fold
same,Max fold inhibition of SPDEF,MCF-7 cells [4]; probe 220192_x_at,14.2 fold
same,Max fold inhibition of AMIGO2,MCF-7 cells [4]; probe 222108_at,11.7 fold
same,Max fold inhibition of MALAT1,MCF-7 cells [4]; probe 224559_at,2.5 fold
"CC1=C(/C=C/C(C)=C/C=C/C(C)=C/C(=O)O)C(C)(C)CCC1 [RA, all-trans retinoic acid]",growth of MDA-MB-231 cells,"MDA-MB-231 cells; 100 nM RA alone, without MCF-7 cells, five days",no effect
same,decrease of the number of MDA-MB-231 cells,"MDA-MB-231 cells; 100 nM RA in 1:1 coculture with MCF-7, five days",about 25%
same,inhibition of MDA-MB-231 cell growth,"MDA-MB-231 cells; coculture for three days with MCF-7 pre-treated 8 days with RA, vs coculture with untreated MCF-7",about 30%
same,effect of addition of RA to the coculture on MDA-MB-231 growth inhibition,"MDA-MB-231 cells; coculture with RA-pretreated MCF-7, 100 nM RA present, three days",no significant effect
